{"source": "paper PMC3701070", "about": "(PLoS ONE, 2013)", "key": {"[1]": {"test_system": "786-O", "assay": "Cell growth assay", "type": "cell-based", "conditions": "Homo sapiens, 786-0, 72 h, RAF WT, RAS WT, 3-day, read-out: gIC50", "experimental": "(§1) Growth was measured with CellTiter-Glo® (Promega) reagent per the manufacturer’s protocol, using a PerkinElmer EnVision™ reader at t = 0 and 72 h. IC50 values for cell growth inhibition (gIC50) were determined.\n(§2) (PDF) Click here for additional data file."}, "[2]": {"test_system": "A172", "assay": "Cell growth assay", "type": "cell-based", "conditions": "Homo sapiens, A 172, 72 h; A172, RAF WT, RAS WT, 3-day; read-out: gIC50", "experimental": "as §1, §2"}, "[3]": {"test_system": "Colo704", "assay": "Cell growth assay", "type": "cell-based", "conditions": "Homo sapiens, COLO 704, 72 h; Colo704, RAF WT, RAS WT, 3-day; read-out: gIC50", "experimental": "as §1, §2"}, "[4]": {"test_system": "EFM-19", "assay": "Cell growth assay", "type": "cell-based", "conditions": "Homo sapiens, 72 h; EFM-19, RAF WT, RAS WT, 3-day; read-out: gIC50", "experimental": "as §1, §2"}, "[5]": {"test_system": "KPL-1", "assay": "Cell growth assay", "type": "cell-based", "conditions": "Homo sapiens, 72 h; KPL-1, RAF WT, RAS WT, 3-day; read-out: gIC50", "experimental": "as §1, §2"}, "[6]": {"test_system": "NCI-H747", "assay": "Cell growth assay", "type": "cell-based", "conditions": "Homo sapiens, 72 h; NCI-H747, RAF WT, KRAS(G13D), 3-day; read-out: gIC50", "experimental": "as §1, §2"}, "[7]": {"test_system": "RPMI-8226", "assay": "Cell growth assay", "type": "cell-based", "conditions": "Homo sapiens, 72 h; RPMI-8226, RAF WT, RAS WT, 3-day; read-out: gIC50", "experimental": "as §1, §2"}, "[8]": {"test_system": "HCT-116", "assay": "Cell growth assay", "type": "cell-based, human", "conditions": "HCT-116, RAF WT, KRAS(G13D), 3-day", "experimental": "as §1, §2"}, "[9]": {"molecular_target": "T1, BRAF (Canis lupus familiaris, UniProt A0A8I3SCX1)", "T1 construct": "Full-length BRAF genes were tagged with 6×His-SBP; 6xHis-SBP; made in house; host or cells: HEK293F", "T1 sequence (A0A8I3SCX1 1-803)": "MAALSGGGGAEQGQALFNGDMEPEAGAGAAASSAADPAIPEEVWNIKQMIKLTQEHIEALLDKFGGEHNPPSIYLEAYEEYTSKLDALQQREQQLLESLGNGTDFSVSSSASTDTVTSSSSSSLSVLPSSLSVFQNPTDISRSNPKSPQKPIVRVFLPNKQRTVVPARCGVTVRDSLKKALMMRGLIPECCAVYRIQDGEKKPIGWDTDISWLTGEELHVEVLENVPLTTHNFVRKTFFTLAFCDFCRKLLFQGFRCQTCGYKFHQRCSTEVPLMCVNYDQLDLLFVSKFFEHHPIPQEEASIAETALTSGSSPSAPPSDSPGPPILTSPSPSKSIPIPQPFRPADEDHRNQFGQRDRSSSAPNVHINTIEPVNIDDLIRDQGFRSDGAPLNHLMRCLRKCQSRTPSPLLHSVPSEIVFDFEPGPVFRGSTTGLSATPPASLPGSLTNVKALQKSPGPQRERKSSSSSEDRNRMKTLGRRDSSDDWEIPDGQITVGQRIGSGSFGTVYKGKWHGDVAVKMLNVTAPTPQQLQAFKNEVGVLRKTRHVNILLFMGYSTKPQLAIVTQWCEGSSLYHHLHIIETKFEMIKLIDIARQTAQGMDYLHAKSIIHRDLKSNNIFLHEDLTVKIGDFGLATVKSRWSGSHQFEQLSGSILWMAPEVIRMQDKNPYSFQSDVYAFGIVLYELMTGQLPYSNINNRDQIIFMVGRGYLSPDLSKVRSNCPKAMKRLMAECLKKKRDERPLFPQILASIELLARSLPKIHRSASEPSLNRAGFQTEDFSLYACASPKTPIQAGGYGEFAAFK", "assay": "BRAF/CRAF-activated MEK ATPase coupled assay", "type": "biochemical", "conditions": "Enzyme BRAF, Dog", "experimental": "(§3) Various BRAF orthologs (human, cynomolgus monkey, dog, rat) were cloned in-house. […] Full-length BRAF genes were tagged with 6×His-SBP and transiently transfected in a HEK293F expression system (Invitrogen K9000-01 protocol). Transfected cells were incubated at 37°C, 5% CO2 on a shaker at 80 r.p.m. for 48 h and harvested by centrifugation. BRAF proteins were purified by UltraLink®-immobilized Streptavidin affinity and Superdex™ 200 size exclusion chromatography.\n(§4) N-terminal GST-tagged MEK1 was expressed in BL21[DE3]/pRR692 cells and purified by Glutathione Sepharose™ 4FF and Q-Sepharose™ chromatography. The GST tag was cleaved with TEV protease and MEK1 was purified on a Superdex™ 200 column."}, "[10]": {"molecular_target": "BRAF (Macaca fascicularis, UniProt A0A7N9IA21)", "sequence (A0A7N9IA21 entry or part of it)": "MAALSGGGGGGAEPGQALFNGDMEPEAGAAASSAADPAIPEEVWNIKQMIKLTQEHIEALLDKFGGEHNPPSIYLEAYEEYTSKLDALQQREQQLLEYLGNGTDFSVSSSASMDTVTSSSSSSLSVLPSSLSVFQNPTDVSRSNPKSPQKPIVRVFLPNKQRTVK", "assay": "BRAF/CRAF-activated MEK ATPase coupled assay", "type": "biochemical", "conditions": "Enzyme BRAF, Cyno", "experimental": "as §3, §4"}, "[11]": {"molecular_target": "T2, BRAF (Rattus norvegicus, UniProt A0A8I6AFV6)", "T2 construct": "Full-length BRAF genes were tagged with 6×His-SBP; 6xHis-SBP; made in house; host or cells: HEK293F", "T2 sequence (A0A8I6AFV6 1-804)": "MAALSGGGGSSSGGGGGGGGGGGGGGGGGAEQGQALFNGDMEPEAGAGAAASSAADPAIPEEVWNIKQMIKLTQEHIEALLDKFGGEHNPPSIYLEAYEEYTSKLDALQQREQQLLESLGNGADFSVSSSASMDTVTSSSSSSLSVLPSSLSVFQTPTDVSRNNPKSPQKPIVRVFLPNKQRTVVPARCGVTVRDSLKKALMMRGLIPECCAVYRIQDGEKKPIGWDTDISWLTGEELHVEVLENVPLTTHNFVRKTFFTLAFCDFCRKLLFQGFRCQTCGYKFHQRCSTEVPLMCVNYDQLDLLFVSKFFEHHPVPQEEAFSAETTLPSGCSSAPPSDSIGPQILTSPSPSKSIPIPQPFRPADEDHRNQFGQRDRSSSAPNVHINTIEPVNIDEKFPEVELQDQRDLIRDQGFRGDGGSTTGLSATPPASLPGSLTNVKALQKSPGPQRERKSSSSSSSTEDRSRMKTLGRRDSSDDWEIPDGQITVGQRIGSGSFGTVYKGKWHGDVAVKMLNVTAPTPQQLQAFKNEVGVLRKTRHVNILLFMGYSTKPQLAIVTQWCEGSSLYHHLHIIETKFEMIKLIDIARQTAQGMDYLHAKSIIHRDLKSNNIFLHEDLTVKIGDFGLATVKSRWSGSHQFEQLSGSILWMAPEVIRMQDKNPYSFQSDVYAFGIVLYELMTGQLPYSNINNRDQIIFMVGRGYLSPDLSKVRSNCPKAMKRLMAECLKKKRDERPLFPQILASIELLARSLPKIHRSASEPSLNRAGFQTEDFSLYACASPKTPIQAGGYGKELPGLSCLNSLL", "assay": "BRAF/CRAF-activated MEK ATPase coupled assay", "type": "biochemical", "conditions": "Enzyme BRAF", "experimental": "as §3, §4"}, "[12]": {"molecular_target": "T3, BRK (h) (Homo sapiens, UniProt Q13882)", "T3 construct": "purchased Millipore", "assay": "Kinase panel (Millipore) enzyme activity", "type": "biochemical"}, "[13]": {"molecular_target": "T4, NEK11 (h) (Homo sapiens, UniProt Q8NG66)", "T4 construct": "purchased Millipore", "assay": "Kinase panel (Millipore) enzyme activity", "type": "biochemical"}, "[14]": {"molecular_target": "T5, PKD2 (h) (Homo sapiens, UniProt Q9BZL6)", "T5 construct": "purchased Millipore", "assay": "Kinase panel (Millipore) enzyme activity", "type": "biochemical"}, "[15]": {"molecular_target": "T6, SIK (h) (Homo sapiens, UniProt P57059)", "T6 construct": "purchased Millipore", "assay": "Kinase panel (Millipore) enzyme activity", "type": "biochemical"}, "[16]": {"molecular_target": "ALK5 (h) (Homo sapiens, UniProt P36897)", "sequence (P36897 34-503)": "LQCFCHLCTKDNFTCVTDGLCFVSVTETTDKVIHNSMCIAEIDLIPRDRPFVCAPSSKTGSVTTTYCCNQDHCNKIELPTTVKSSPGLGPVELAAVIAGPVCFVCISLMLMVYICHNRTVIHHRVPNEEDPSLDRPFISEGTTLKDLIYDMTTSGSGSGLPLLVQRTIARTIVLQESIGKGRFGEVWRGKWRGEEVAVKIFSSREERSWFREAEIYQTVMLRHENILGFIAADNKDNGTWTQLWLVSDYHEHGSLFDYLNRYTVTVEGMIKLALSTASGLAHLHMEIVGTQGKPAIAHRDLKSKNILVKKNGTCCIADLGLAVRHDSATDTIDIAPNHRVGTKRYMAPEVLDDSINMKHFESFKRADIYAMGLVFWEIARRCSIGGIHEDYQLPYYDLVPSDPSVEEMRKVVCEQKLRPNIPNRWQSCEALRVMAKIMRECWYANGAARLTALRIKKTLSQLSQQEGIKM", "assay": "ALK5 binding assay"}, "[17]": {"test_system": "pERK in A375P (BRAF^V600E) cells", "assay": "Western blot, pERK in A375P cells", "type": "cell-based", "conditions": "Homo sapiens, 8 nM, 1 h", "experimental": "(§5) Cells were lysed in 25 mM Tris-HCl pH 7.5, 2 mM EDTA, 2 mM EGTA, 1% Triton X-100, 0.1% SDS, 50 mM sodium-β-glycerophosphate, 2 mM Na3VO4, 12.5 mM sodium pyrophosphate, 2× Complete EDTA-free mini protease inhibitor tablets (Roche), 2× phosphatase inhibitor cocktails I and II (Sigma-Aldrich). Protein concentrations were determined by Bio-Rad DC™ or dye-based protein assays and lysates were resolved by SDS-PAGE (Invitrogen NuPAGE®) and transferred to PVDF membranes. Membranes were blocked with Odyssey® (LI-COR Biosciences) blocking buffer and incubated with primary antibodies overnight at 4°C. Blots were washed with PBS containing 0.1% Tween-20, incubated with secondary antibodies, and washed again prior to signal detection on a LI-COR Odyssey® reader.\n(§6) siRNA complexes were prepared per the manufacturer's instructions using Dharmacon RNAi duplex (Thermo Fisher Scientific), Lipofectamine™ RNAiMAX™ (Invitrogen), and Opti-MEM® (Gibco) and allowed to form at room temperature for at least 40 min. Volumes of 1 mL of RNAi complex were added to each well of a plate with 150 000 cells in complete medium (no antibiotic) and incubated at 37°C, 5% CO2 for the indicated times.\n(§7) Lysates were immunoblotted for the proteins indicated."}, "[18]": {"test_system": "pMEK in A375P (BRAF^V600E) cells", "assay": "Western blot, pMEK in A375P cells", "type": "cell-based", "conditions": "Homo sapiens, 8 nM, 1 h", "experimental": "as §5, §6, §7"}, "[19]": {"test_system": "Human Foreskin Fibroblasts (HFF, wild-type BRAF)", "assay": "Cell cycle analysis", "type": "cell-based", "conditions": "concentrations up to 10 µM", "experimental": "Cells were permeabilized, DNA was stained with propidium iodide, and samples were read on a BD LSRII flow cytometer. Data were analyzed using the cell cycle platform of FlowJo v6.1.1 software.\nCell cycle phases are shown in stacked format as a percentage of the total population. […] (PPTX) Click here for additional data file."}, "[20]": {"assay": "Pharmacokinetic analysis in tumor-bearing mice", "conditions": "30 mg/kg oral once daily, blood", "experimental": "Compound concentrations were determined from flash-frozen hemolyzed blood samples (blood:water ratio of 1∶1) or tumor homogenates (tumor:water ratio of 1∶4) by HPLC/MS-MS analysis."}, "[21]": {"test_system": "Colo 205 tumor xenografts (BRAF^V600E)", "assay": "Colo 205 tumor xenograft growth", "type": "in vivo, mice", "from_the_text": "The 14-day period of dosing is indicated by the shaded gray bar."}}, "note": "Read-outs that look alike come from different tables or passages of the source.", "data": [{"smiles": "CC(C)(C)c1nc(-c2cccc(NS(=O)(=O)c3c(F)cccc3F)c2F)c(-c2ccnc(N)n2)s1", "note": "[dabrafenib]", "values": [{"measurement": "IC50", "setting": "[1]", "result": "> 10000", "unit": "nM"}, {"measurement": "IC50", "setting": "[2]", "result": "> 10000", "unit": "nM"}, {"measurement": "IC50", "setting": "[3]", "result": "> 10000", "unit": "nM"}, {"measurement": "IC50", "setting": "[4]", "result": "> 10000", "unit": "nM"}, {"measurement": "IC50", "setting": "[5]", "result": "> 10000", "unit": "nM"}, {"measurement": "IC50", "setting": "[6]", "result": "> 10000", "unit": "nM"}, {"measurement": "IC50", "setting": "[7]", "result": 263, "unit": "nM"}, {"measurement": "gIC50", "setting": "[8]", "result": "insensitive"}, {"measurement": "IC50", "setting": "[8]; Homo sapiens, 72 h, read-out: gIC50", "result": "> 10000", "unit": "nM"}, {"measurement": "IC50", "setting": "[9]", "result": 4, "unit": "nM"}, {"measurement": "IC50", "setting": "[10]; read-out: IC50", "result": 4, "unit": "nM"}, {"measurement": "IC50", "setting": "[10]; read-out: pIC50 +/- std. dev. (converted)", "result": 3.98, "unit": "nM"}, {"measurement": "IC50", "setting": "[11]", "result": 4, "unit": "nM"}, {"measurement": "IC50", "setting": "[12]", "result": 79, "unit": "nM"}, {"measurement": "IC50", "setting": "[13]", "result": 20, "unit": "nM"}, {"measurement": "IC50", "setting": "[14]", "result": 57, "unit": "nM"}, {"measurement": "IC50", "setting": "[15]", "result": 27, "unit": "nM"}, {"measurement": "IC50", "setting": "[16]", "result": 11, "unit": "nM"}, {"measurement": "inhibition at 0.008 µM", "setting": "[17]", "result": "> 90", "unit": "%"}, {"measurement": "inhibition at 0.008 µM", "setting": "[18]", "result": "> 90", "unit": "%"}, {"measurement": "effect on cell cycle", "setting": "[19]", "result": "unaffected"}, {"measurement": "oral bioavailability", "setting": "[20]", "result": "orally bioavailable"}, {"measurement": "partial regressions", "setting": "[21]; Colo 205 xenograft, 100 mg/kg oral q.d. x 14", "result": "4 of 8 mice"}, {"measurement": "inhibition of tumor growth", "setting": "[21]; Colo 205 xenograft, 3, 10, 30 and 100 mg/kg oral q.d. x 14", "result": "dose-dependent inhibition of tumor growth"}]}]}
